Measurements from patent US8252781B2, “1,2-diazetidin-3-one derivatives and drugs containing same” (Kowa Company, Ltd., priority 2008, dated 2012).
Like-named read-outs stand apart in the source and are kept apart here.

Tests used:
[1] = target: T1, human 11β-HSD1 (Homo sapiens, UniProt P28845); experiment: Enzyme inhibitory activity, human 11β-HSD1 (lysate of stably expressing HEK293 cells, cortisol by competitive ELISA); format: biochemical; settings: human 11β-HSD1, cell lysate, 37° C. for 1 hour, read-out: h HSD1 in vitro assay (IC50 uM)
T1 construct: The obtained PCR products of about 0.9 kbp, 1.2 kbp, and 0.9 kbp were subcloned into an expression vector pcDNA3.1+/Zeo; expressed in transfected cells
T1 sequence (P28845 whole entry): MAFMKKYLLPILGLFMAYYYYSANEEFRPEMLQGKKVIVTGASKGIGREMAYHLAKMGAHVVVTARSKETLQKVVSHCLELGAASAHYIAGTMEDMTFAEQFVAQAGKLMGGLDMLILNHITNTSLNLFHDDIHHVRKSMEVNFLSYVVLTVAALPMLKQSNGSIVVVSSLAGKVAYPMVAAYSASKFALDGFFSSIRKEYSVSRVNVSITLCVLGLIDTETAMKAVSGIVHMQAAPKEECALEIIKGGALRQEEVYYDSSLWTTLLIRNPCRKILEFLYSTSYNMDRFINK
Description: (§1) 1. Human 11β-HSD1-, Human 11β-HSD2- and Mouse 11β-HSD1-Gene Clonings and Establishment of Stably Expressing Cells
(§2) Human 11β-HSD1-, human 11β-HSD2-, and mouse 11β-HSD1-gene clonings were conducted using as a template a reverse transcription product of human-liver RNA, human-kidney RNA (CELL APPLICATIONS), and mouse-kidney RNA respectively, by means of PCR cloning with reference to nucleotide sequences of Genbank Accession Nos. NM_005525, NM_000196, and NM_008288. The obtained PCR products of about 0.9 kbp, 1.2 kbp, and 0.9 kbp were subcloned into an expression vector pcDNA3.1+/Zeo (Invitrogen).
(§3) Human 11β-HSD1- and human 11β-HSD2-expressing vectors were transfected into human kidney-derived cell line, HEK293 cells, using a transfection reagent, jet PEI (Funakoshi). Mouse 11β-HSD1 was transfected to Chinese hamster ovary-derived cell line, CHO-K1 cells. Selection was conducted with 200-400 μg/mL of zeocine (Invitrogen) to provide stably expressing-cell clones. The stably expressing cells were suspended in buffer solution A (20 mmol/L Tris-HCl, pH 7.4, 250 mmol/L sucrose, 1 mmol/L EGTA, 1 mmol/L EDTA, 1 mmol/L MgCl2), sonicated, and then stored at −80° C.
(§4) 2. Assay of Enzyme Inhibitory Activity
(§5) An enzymatic reaction was conducted using a polystyrene 96-well plate. Each well was added with 1 μL of a test agent dissolved in DMSO and then diluted (0.003 to 3 mmol/L), and further added with 10 μL of cell lysate diluted to a concentration of 0.1 mg/mL to 0.4 mg/mL. Next, 90 μL of buffer solution A containing substrate (100 nmol/L cortisone or cortisol) and coenzyme (400 μmol/L NADPH or NAD+) was added and the mixture was incubated at 37° C. for 1 hour. The enzymatic reaction was stopped by treating at 95° C. for 3 minutes. Cortisol that was present in the reaction solution was determined by a competitive ELISA shown below.
(§6) Anti-rabbit IgG antibody (Chemi-con) diluted to 2 μg/mL with carbonate buffer solution (pH 9.6) was added in 100 μL each to a 96-well immuno plate (Nunc) and immobilized by an incubation at 4° C. overnight. 50 μL of enzymatic reaction solution was put onto the plates, and further, anti-cortisol antibody (Cosmo Bio) and HRP-labeled cortisol (Cosmo Bio), diluted with buffer solution B (25 mmol/L Tris-HCl pH 7.4, 137 mmol/L NaCl, 2.68 mmol/L KCl), were added in 50 μL respectively and incubated at 4° C. overnight. After washed three times with buffer solution B containing 0.05% Tween 20, the plates were allowed to develop color by adding 100 μL of color reagent, TMB (Moss). The color reaction was stopped by 25 μL of 1 mol/L sulfuric acid and the absorbance was determined at 450 nm with a microplate reader (Molecular Device, VersaMax).
(§7) The values of human 11β-HSD1, human 11β-HSD2, and mouse 11β-HSD1 activities were subtracted from 100, and the resultant values were regarded as the respective 11β-HSD inhibition rates of example compounds. […] The comparison of human 11β-HSD1 and human 11β-HSD2 inhibiting activities is shown in Table 1, and the comparison of human 11β-HSD1 and mouse 11β-HSD1 inhibiting activities is shown in Table 2.

[2] = target: T2, mouse 11β-HSD1 (Mus musculus, UniProt P50172); experiment: Enzyme inhibitory activity, mouse 11β-HSD1 (lysate of stably expressing CHO-K1 cells, cortisol by competitive ELISA); format: biochemical; settings: Table 2; mouse 11β-HSD1, cell lysate, 37° C. for 1 hour; read-out: m HSD1 in vitro assay (IC50 uM)
T2 construct: The obtained PCR products of about 0.9 kbp, 1.2 kbp, and 0.9 kbp were subcloned into an expression vector pcDNA3.1+/Zeo; expressed in transfected cells
T2 sequence (P50172 whole entry): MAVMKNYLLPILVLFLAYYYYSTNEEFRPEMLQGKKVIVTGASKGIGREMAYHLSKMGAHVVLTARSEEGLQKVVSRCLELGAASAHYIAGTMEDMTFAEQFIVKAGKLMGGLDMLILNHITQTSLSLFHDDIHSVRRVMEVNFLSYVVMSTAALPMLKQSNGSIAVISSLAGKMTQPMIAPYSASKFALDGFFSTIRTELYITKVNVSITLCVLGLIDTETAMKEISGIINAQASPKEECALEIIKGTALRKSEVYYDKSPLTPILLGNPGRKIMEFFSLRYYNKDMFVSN
Description: as §1, §2, §3, §4, §5, §6, §7

| SMILES | IC50 ([1]; Table 2) [µM] | IC50 [2] [µM] | IC50 ([1]; Table 1) [µM] |
| --- | --- | --- | --- |
| CC1(C)C(=O)N(C2C3CC4CC(C3)CC2C4)N1Cc1ccccc1 (stereo not shown) [Example 12, 1-benzyl-4,4-dimethyl-2-(adamantan-2-yl)-1,2-diazetidin-3-one] | 0.047 | 0.023 |  |
| CC1(C)C(=O)N(C2C3CC4CC(C3)CC2C4)N1c1ccc(N)cc1 (stereo not shown) [Example 183, 1-(4-aminophenyl)-4,4-dimethyl-2-(adamantan-2-yl)-1,2-diazetidin-3-one] | 0.057 | 0.76 |  |
| CC1C(=O)N(C2C3CC4CC(C3)CC2C4)N1Cc1ccccc1 (stereo not shown) [Example 8, 1-benzyl-4-methyl-2-(adamantan-2-yl)-1,2-diazetidin-3-one] | 0.79 | 0.18 |  |
| CC1(C)C(=O)N(C2C3CC4CC(C3)CC2C4)N1C(=O)c1cc(Cl)ccc1Cl (stereo not shown) [Example 122, 1-[(2,5-dichlorophenyl)carbonyl]-4,4-dimethyl-2-(adamantan-2-yl)-1,2-diazetidin-3-one] |  |  | 0.32 |
| CC1(C)C(=O)N(C2C3CC4CC(C3)CC2C4)N1Cc1cc(F)ccc1F (stereo not shown) [Example 20, 1-(2,5-difluorobenzyl)-4,4-dimethyl-2-(adamantan-2-yl)-1,2-diazetidin-3-one] | 0.35 | 0.2 |  |
| Cc1cccc(CN2N(C3C4CC5CC(C4)CC3C5)C(=O)C2(C)C)c1 (stereo not shown) [Example 32, 4,4-dimethyl-1-(3-methylbenzyl)-2-(adamantan-2-yl)-1,2-diazetidin-3-one] | 0.25 | 0.054 |  |
| CC1(C)C(=O)N(C2CCCCCCC2)N1Cc1ccccc1Cl [Example 73, 1-(2-chlorobenzyl)-2-cyclooctyl-4,4-dimethyl-1,2-diazetidin-3-one] | 0.021 | 0.11 |  |
| CC1(C)C(=O)N(C2C3CC4CC(C3)CC2C4)N1Cc1cccc2ccccc12 (stereo not shown) [Example 63, 4,4-dimethyl-1-(naphthalen-1-ylmethyl)-2-(adamantan-2-yl)-1,2-diazetidin-3-one] | 0.015 | 0.41 |  |
| CC1C(=O)N(C2C3CC4CC(C3)CC2C4)N1Cc1ccc(Cl)cc1 (stereo not shown) [Example 9, 1-(4-chlorobenzyl)-4-methyl-2-(adamantan-2-yl)-1,2-diazetidin-3-one] | 0.68 | 0.24 |  |
| CC1(C)C(=O)N(C2C3CC4CC(C3)CC2C4)N1C(=O)c1ccc(F)cc1C(F)(F)F (stereo not shown) [Example 132, 1-[(4-fluoro-2-trifluoromethylphenyl)carbonyl]-4,4-dimethyl-2-(adamantan-2-yl)-1,2-diazetidin-3-one] |  |  | 0.66 |
| CC1(C)C(=O)N(C2C3CC4CC(C3)CC2C4)N1C(=O)c1ccccc1I (stereo not shown) [Example 121, 1-[(2-iodophenyl)carbonyl]-4,4-dimethyl-2-(adamantan-2-yl)-1,2-diazetidin-3-one] |  |  | 0.07 |
| CC1(C)C(=O)N(C2C3CC4CC(C3)CC2C4)N1C(=O)c1ccccc1N (stereo not shown) [Example 136, 1-[(2-aminophenyl)carbonyl]-4,4-dimethyl-2-(adamantan-2-yl)-1,2-diazetidin-3-one] |  |  | 0.14 |
| CSc1ccccc1C(=O)N1N(C2C3CC4CC(C3)CC2C4)C(=O)C1(C)C (stereo not shown) [Example 165, 4,4-dimethyl-1-{[2-(methylthio)phenyl]carbonyl}-2-(adamantan-2-yl)-1,2-diazetidin-3-one] |  |  | 0.096 |
| CSc1ccccc1C(=O)N1N(C2CCCCCCC2)C(=O)C1(C)C [Example 168, 2-cyclooctyl-4,4-dimethyl-1-{[2-(methylthio)phenyl]carbonyl}-1,2-diazetidin-3-one] |  |  | 0.11 |
| CCc1ccccc1C(=O)N1N(C2C3CC4CC(C3)CC2C4)C(=O)C1(C)C (stereo not shown) [Example 126, 1-[(2-ethylphenyl)carbonyl]-4,4-dimethyl-2-(adamantan-2-yl)-1,2-diazetidin-3-one] |  |  | 0.11 |
| CC1(C)C(=O)N(C2CCCCCCC2)N1C(=O)c1cccc2ccccc12 [Example 154, 2-cyclooctyl-4,4-dimethyl-1-(naphthalen-1-ylcarbonyl)-1,2-diazetidin-3-one] |  |  | 0.036 |
| Cc1ccc(C)c(C(=O)N2N(C3CCCCC3)C(=O)C2(C)C)c1 [Example 149, 2-cyclohexyl-1-[(2,5-dimethylphenyl)carbonyl]-4,4-dimethyl-1,2-diazetidin-3-one] |  |  | 0.9 |
| CC1(C)C(=O)N(C2C3CC4CC(C3)CC2C4)N1C(=O)c1cc(Cl)ccc1Br (stereo not shown) [Example 163, 1-[(2-bromo-5-chlorophenyl)carbonyl]-4,4-dimethyl-2-(adamantan-2-yl)-1,2-diazetidin-3-one] |  |  | 0.72 |

Continued, values first:

| IC50 ([1]; Table 2) [µM] | IC50 [2] [µM] | IC50 ([1]; Table 1) [µM] | SMILES |
| --- | --- | --- | --- |
|  |  | 0.81 | CC1(C)C(=O)N([C@H]2C3CC4CC2C[C@@](O)(C4)C3)N1c1ccccc1O [Example 244, cis-1-(2-hydroxyphenyl)-2-(5-hydroxyadamantan-2-yl)-4,4-dimethyl-1,2-diazetidin-3-one] |
|  | 0.42 | 0.16 | COc1cccc(N2N(C3C4CC5CC(C4)CC3C5)C(=O)C2(C)C)c1 (stereo not shown) [Example 204, 1-(3-methoxyphenyl)-4,4-dimethyl-2-(adamantan-2-yl)-1,2-diazetidin-3-one] |
| 0.61 | 0.054 |  | Cc1cccc(N2N(C3C4CC5CC(C4)CC3C5)C(=O)C2(C)C)c1C (stereo not shown) [Example 207, 1-(2,3-dimethylphenyl)-4,4-dimethyl-2-(adamantan-2-yl)-1,2-diazetidin-3-one] |
|  | 0.4 | 0.007 | CC1(C)C(=O)N([C@H]2C3CC4CC2C[C@](C(N)=O)(C4)C3)N1c1cccc(Cl)c1Cl [Example 277, trans-4-[2-(2,3-dichlorophenyl)-3,3-dimethyl-4-oxo-1,2-diazetidin-1-yl]adamantane-1-carboxamide] |
|  |  | 0.26 | CC1(C)C(=O)N([C@H]2C3CC4CC2C[C@@](Cl)(C4)C3)N1c1cccc(Cl)c1Cl [Example 256, cis-2-(5-chloroadamantan-2-yl)-1-(2,3-dichlorophenyl)-4,4-dimethyl-1,2-diazetidin-3-one] |
|  |  | 0.95 | CC1(C)C(=O)N([C@H]2C3CC4CC2C[C@](O)(C4)C3)N1c1ccccc1 [Example 226, trans-2-(5-hydroxyadamantan-2-yl)-4,4-dimethyl-1-phenyl-1,2-diazetidin-3-one] |
|  |  | 0.68 | COc1ccccc1N1N(C2CC3CCC2C3)C(=O)C1(C)C (stereo not shown) [Example 223, 2-(bicyclo[2.2.1]heptan-2-yl)-1-(2-methoxyphenyl)-4,4-dimethyl-1,2-diazetidin-3-one] |
|  |  | 0.041 | COCOc1ccc(N2N(C3C4CC5CC(C4)CC3C5)C(=O)C2(C)C)cc1 (stereo not shown) [Example 214, 1-[4-(methoxymethoxy)phenyl]-4,4-dimethyl-2-(adamantan-2-yl)-1,2-diazetidin-3-one] |
|  |  | 0.32 | COc1ccc(N2N([C@H]3C4CC5CC3C[C@@](O)(C5)C4)C(=O)C2(C)C)cc1 [Example 240, cis-2-(5-hydroxyadamantan-2-yl)-1-(4-methoxyphenyl)-4,4-dimethyl-1,2-diazetidin-3-one] |
|  |  | 0.54 | COc1ccc(N2N([C@H]3C4CC5CC3C[C@](O)(C5)C4)C(=O)C2(C)C)cc1 [Example 230, trans-2-(5-hydroxyadamantan-2-yl)-1-(4-methoxyphenyl)-4,4-dimethyl-1,2-diazetidin-3-one] |
|  |  | 0.076 | Cc1ccccc1N1N([C@H]2C3CC4CC2C[C@@](O)(C4)C3)C(=O)C1(C)C [Example 242, cis-2-(5-hydroxyadamantan-2-yl)-4,4-dimethyl-1-(2-methylphenyl)-1,2-diazetidin-3-one] |
